Laboratory results as given in EP2067861A1, “Animals of the rattus genus wherein msh6 expression is functionally decreased and methods for the generation of specific mutants therefrom” (Koninklijke Nederlandse Akademie van Wetenschappen, priority 2007, dated 2009).

System: Male MSH6 knockout rats (Msh6^1Hubr)
Experiment: ENU-induced germ line mutation discovery by resequencing 768 amplicons in F1 progeny
Type: in vivo, rat
Method: All experiments were approved by the Animal Care Committee of the Royal Dutch Academy of Science according to the Dutch legal ethical guidelines. Experiments were designed to minimize the number of required animals and their suffering. Male MSH6 knockout rats (Msh6^1Hubr) of 12 weeks of age were given three weekly intraperitoneal injections of 25, 30 and 35 mg/kg bodyweight ENU. Preparation of ENU (Isopac; Sigma) was done as decribed (for detailed description, see (Smits et al. (2006) Pharmacogenet Genomics 16, 159-69) After the treatment the injected males were monitored for fertility by breeding with one or two females. Pups from these early matings were counted, but not analyzed. Ten weeks after the last injection, fertile males of the highest-dosed fertile group were kept on a weekly breeding scheme with two females to produce F1 progeny for mutational analysis. Animals were housed under standard conditions in groups of two to three per cage per gender under controlled experimental conditions (12-h light/dark cycle, 21±1°C, 60% relative humidity, food and water ad libitum).
At two weeks of age F1 progeny were uniquely tagged by fetching ear clips. Ear clips were lysed for at least 2 hours at 55°C and 1400 rpm in a Thermomixer comfort (Eppendorf) in 400 µl lysisbuffer (100 mM Tris (pH 8.5), 200 mM NaCl, 0.2% SDS, 5 mM EDTA and 100 µg/ml of freshly added Proteinase K) followed by phenol/chloroform (1:1, vol/vol) extraction. The DNA was precipitated by adding 300 µl isopropanol, mixing and centrifuging for 20 min, at 21,000 g at 4°C. The supernatant was discarded and pellets were washed with 70% ethanol and dissolved in 500 µl MQ.
768 pre-selected amplicons were amplified using a nested PCR setup. The first PCR was carried out using a touchdown thermocycling program (94°C for 60 sec; 15 cycles of 92°C for 30 sec, 65°C for 30 sec with a decrement of 0.6°C per cycle, 72°C for 60 sec; followed by 30 cycles of 92°C for 30 sec, 58°C for 30 sec and 72°C for 60 sec; 72°C for 180 sec; GeneAmp9700, Applied Biosystems). The PCR reaction contained ±100 ng DNA, 0.2 µM of each forward primer and 0.2 µM of each reverse primer, 400 µM of each dNTP, 25 mM tricine, 7.0% glycerol (w/v), 1.6% dimethyl sulfoxide (DMSO) (w/v), 2 mM MgCl2, 85 mM ammonium acetate pH 8.7 and 0.2 U Taq Polymerase in a total volume of 5 µl. After thermocycling, the PCR1 reactions were diluted with 20 µl H2O and 1 µl was used as template for the second round of PCR. The second PCR was done using a standard thermocycling program (94°C for 60 sec; 35 cycles of 92°C for 20 sec, 58°C for 30 sec and 72°C for 60 sec; 72°C for 180 sec; GeneAmp9700, Applied Biosystems). PCR2 mixes contained 1 µl diluted PCR1 template, 0.1 µM forward primer, 0.1 µM reverse primer, 100 µM of each dNTP, 25 mM tricine, 7.0% glycerol (w/v), 1.6% DMSO (w/v), 2 mM MgCl2, 85 mM ammonium acetate pH 8.7 and 0.1 U Taq Polymerase in a total volume of 5 µl. Several samples of each plate were tested on a 1% agarose gel containing ethidium bromide for the presence of the proper PCR fragment. PCR2 products were diluted with 20 µl H2O and 1 µl was directly used as a template for the sequencing reactions. Sequencing reactions contained 0.1 µl BigDye (v3.1; Applied Biosystems), 1.9 µl BigDye Dilution Buffer (Applied Biosystems) and 0.4 µM of the forward primers used for the PCR2 reaction in a total volume of 5 µl. The thermocycling program that was recommended by the manufacturer was used for the sequence reactions (40 cycles of 94°C for 10 sec, 50°C for 5 sec and 60°C for 120 sec). Sequencing products were purified by ethanol precipitation in the presence of 40 mM sodium-acetate and analyzed on a 96-capillary 3730XL DNA analyzer (Applied Biosystems), using the standard RapidSeq protocol on 36 cm array. Sequences were analyzed for the presence of heterozygous mutations using PolyPhred (Nickerson et al. (1997) Nucleic Acids Res. 25, 2745-51) and in-house developed software. […]

[1] = 3 x 30 mg/kg bodyweight ENU, animals born 14 - 16 weeks after the ENU injection
[2] = 94 coding mutations, all MSH6^-/- dose groups
[3] = ENU mutation spectrum, MSH6 deficient compared to proficient background
[4] = MSH6^-/- 3 x 25 mg/kg ENU, 16 pups, 3.57 x 10^6 bases screened
[5] = MSH6^-/- 3 x 30 mg/kg ENU, 291 pups, 69.66 x 10^6 bases screened
[6] = MSH6^-/- 3 x 35 mg/kg ENU, 3 pups, 0.72 x 106 bases screened
[7] = MSH6^-/- Total of the three dose groups

With `CCN(N=O)C(N)=O` [ENU, N-ethyl-N-nitrosourea] the “Mutation Frequencies” value (3 x 30 mg/kg bodyweight ENU, F1 born 14 - 16 weeks after last injection) was 1.88 x 10^-6, the “# Mutations” value (3 x 30 mg/kg bodyweight ENU, F1 born 14 - 16 weeks after last injection, 59 pups, 14.92 x 10^6 bases screened) was 28 and the “Mutation Frequencies” value (3 x 30 mg/kg bodyweight ENU, F1 born 17 - 19 weeks after last injection) was 1.65 x 10^-6. The “# Mutations” value (3 x 30 mg/kg bodyweight ENU, F1 born 17 - 19 weeks after last injection, 62 pups, 13.30 x 106 bases screened) was 22, the “Mutation Frequencies” value (3 x 30 mg/kg bodyweight ENU, F1 born 20 - 22 weeks after last injection) was 1.24 x 10^-6 and the “# Mutations” value (3 x 30 mg/kg bodyweight ENU, F1 born 20 - 22 weeks after last injection, 67 pups, 15.34 x 10^6 bases screened) was 19. The “Mutation Frequencies” value (3 x 30 mg/kg bodyweight ENU, F1 born 23 - 25 weeks after last injection) was 9.92 x 10^-7, the “# Mutations” value (3 x 30 mg/kg bodyweight ENU, F1 born 23 - 25 weeks after last injection, 64 pups, 16.14 x 10^6 bases screened) was 16 and the mutation frequency (3 x 30 mg/kg bodyweight ENU, F1 born 23 weeks after the last injection or later) was “approximately 1.0 x 10^-6 per base pair”. For the same molecule, the “Mutation Frequencies” value (3 x 30 mg/kg bodyweight ENU, F1 born 26 - 29 weeks after last injection) was 1.10 x 10^-6, the “# Mutations” value (3 x 30 mg/kg bodyweight ENU, F1 born 26 - 29 weeks after last injection, 39 pups, 9.97 x 10^6 bases screened) was 11 and the mutation frequency [1] was 1.88 x 10^-6 per base pair. For the same molecule, the “mutation rate (1 mutation every ... base pairs)” value [1] was 5.3 x 10^5 base pairs, the mutation frequency (3 x 30 mg/kg bodyweight ENU, animals born 17 - 19 weeks after the last ENU injection) was 1.65 x 10^-6 per base pair and the mutation frequency (3 x 30 mg/kg bodyweight ENU, animals born 20 - 22 weeks after the last ENU injection) was 1.24 x 10^-6 per base pair. For the same molecule, the “missense mutations, share of coding mutations” value [2] was roughly 74%, the “nonsense mutations, share of coding mutations” value [2] was roughly 4% and the “silent mutations, share of coding mutations” value [2] was roughly 21%. For the same molecule, the “percentage of A:T to G:C transitions” value [3] was “significantly decreased”, the “percentage of G:C to A:T transitions” value [3] was “significantly increased” and the percentages of transversions [3] was “No significant change”. For the same molecule, the “# Mutations - non-coding” value (MSH6^-/- 3 x 25 mg/kg ENU) was 0, the “# Mutations - silent” value (MSH6^-/- 3 x 25 mg/kg ENU) was 1 and the “# Mutations - missense” value [4] was 4. For the same molecule, the “# Mutations - nonsense” value [4] was 0, the “# Mutations - total” value [4] was 5 and the “Mutation Frequencies” value (MSH6^-/- 3 x 25 mg/kg ENU, F1 progeny) was 1.40 x 10^-6. For the same molecule, the “# Mutations - non-coding” value (MSH6^-/- 3 x 30 mg/kg ENU) was 8, the “# Mutations - silent” value (MSH6^-/- 3 x 30 mg/kg ENU) was 19 and the “# Mutations - missense” value [5] was 65. The “# Mutations - nonsense” value [5] was 4, the “# Mutations - total” value [5] was 96 and the “Mutation Frequencies” value (MSH6^-/- 3 x 30 mg/kg ENU, F1 progeny) was 1.38 x 10^-6. For the same molecule, the “# Mutations - non-coding” value (MSH6^-/- 3 x 35 mg/kg ENU) was 0, the “# Mutations - silent” value (MSH6^-/- 3 x 35 mg/kg ENU) was 0 and the “# Mutations - missense” value [6] was 1. The “# Mutations - nonsense” value [6] was 0, the “Mutation Frequencies” value (MSH6^-/- 3 x 35 mg/kg ENU, F1 progeny) was 1.38 x 10^-6 and the “# Mutations - missense” value [7] was 70. For the same molecule, the “# Mutations - non-coding” value [7] was 8, the “# Mutations - silent” value [7] was 20 and the “# Mutations - total” value (MSH6^-/- Total of the three dose groups, 310 pups, 73,95 x 10^6 bases screened) was 102. The “increase of mutation rate compared to control animals” value (MSH6 deficient 3 x 30 mg/kg ENU versus control 3 x 40 mg/kg) was 1.7 x, the “mutation rate (1 mutation every ... base pairs)” value (MSH6 deficient, 3 x 30 mg/kg bodyweight ENU, 291 F1 progeny, almost 70 Mb) was 7.26 x 10^5 base pairs and the “mutations in coding regions” value (of the 102 mutations found, all MSH6^-/- dose groups) was 94.
